Here are results for 22 compounds from patent publication US9914735B2, “Heteroaryl Syk inhibitors” (Boehringer Ingelheim International GmbH, priority 2014, dated 2018).

Each structure is given as a SMILES string. Where two headings read alike, the source gives them in different places. Where only a bound is given, the exact number is not on record here.

What all share (assay type): biochemical
Assay [1] has as its target Recombinant human Syk (amino acids 342-635), GST-Syk kinase fusion protein (Homo sapiens (Human), UniProt P43405). As to the kind of experiment: Syk kinase test (Kinase Glo luminescence). On the procedure:
(§1) The output file of the reader is a csv file that contains the well number and measured relative light units (RLU). For data evaluation and calculation, the measurement of the negative control was set as 100% ctrl and the measurement of the positive control was set as 0% ctrl. Based on this values the % value for the measurement of each substance concentration was calculated using an Assay Explorer software (Accelrys). Normally, the % ctrl values calculated are between 0% and 100% values but may also occur outside these limits in individual cases based on variability or compound characteristics. The IC50 values were calculated from the % ctrl values using Assay Explorer software. Calculation:[y=(a−d)/(1+(x/c)^b)+d] a=low value, d=high value; x=conc M; c=IC50 M; b=hill; y=% ctrl.

For assay [2], the target named is Recombinant human Aurora B (amino acids 1-344) (Homo sapiens (Human), UniProt Q96GD4). As to the kind of experiment: Aurora B kinase test (ADP Glo luminescence). On the procedure: The activity of the Aurora B kinase protein was determined using the ADP Glo® Luminescence Kinase test (Promega; V9103X).
Serial Dilution is done in 1:10 steps in 100% DMSO.
Then 20 μl Kinase detection mix (Detection Buffer #V913B Promega; Kinase Detection Substrate #V914B Promega) were added and incubated for 40 minutes at room temperature.
as §1, with “measured RLU.” for “measured relative light units (RLU).”, “as 0%” for “as 100%”, “as 100%” for “as 0%”, “software. Calculation: [y=(a−d)/(1+(x/c)^b)+d],” for “software. Calculation:[y=(a−d)/(1+(x/c)^b)+d]”

In another assay the target is FLT3 (Homo sapiens (Human), UniProt P36888). As to the kind of experiment: FLT3 kinase test (Z'-LYTE). On the procedure:
The activity of FLT3 is measured using the Z′-LYTETM assay technology from Invitrogen (#PV3191)
The reaction is started by addition of 2.5 μl of the 4×ATP solution.
Positive controls are reaction mixtures containing no test compound; negative controls (blanks) are reaction mixtures containing no kinase. As a further control, the phosphopeptide solution is added to wells without kinase (=100% phosphorylation control).
The reaction is performed for 1 h at room temperature before 5 μl of the development solution is added. After a further incubation for 1 h at room temperature 5 μl of the stop reagent is added.
The output text file is evaluated in an “MS-Excel—VB-Makro” and “GraphPadPrism” (Version 5) (GraphPad Software Inc.) is used to calculate the results. Data for the inhibition of FLT3 are reported in M. data for the inhibition of the protease are reported in % CTL.

Where [3] appears, read: Table 1, read-out: SYK-inhibition IC50-value.
Setting [4] is: Table 1, read-out: AURB-inhibition IC50-value.
[5] abbreviates: Table 1, read-out: FLT3-inhibition IC50-value.

Sequence of FLT3 (P36888 27-993): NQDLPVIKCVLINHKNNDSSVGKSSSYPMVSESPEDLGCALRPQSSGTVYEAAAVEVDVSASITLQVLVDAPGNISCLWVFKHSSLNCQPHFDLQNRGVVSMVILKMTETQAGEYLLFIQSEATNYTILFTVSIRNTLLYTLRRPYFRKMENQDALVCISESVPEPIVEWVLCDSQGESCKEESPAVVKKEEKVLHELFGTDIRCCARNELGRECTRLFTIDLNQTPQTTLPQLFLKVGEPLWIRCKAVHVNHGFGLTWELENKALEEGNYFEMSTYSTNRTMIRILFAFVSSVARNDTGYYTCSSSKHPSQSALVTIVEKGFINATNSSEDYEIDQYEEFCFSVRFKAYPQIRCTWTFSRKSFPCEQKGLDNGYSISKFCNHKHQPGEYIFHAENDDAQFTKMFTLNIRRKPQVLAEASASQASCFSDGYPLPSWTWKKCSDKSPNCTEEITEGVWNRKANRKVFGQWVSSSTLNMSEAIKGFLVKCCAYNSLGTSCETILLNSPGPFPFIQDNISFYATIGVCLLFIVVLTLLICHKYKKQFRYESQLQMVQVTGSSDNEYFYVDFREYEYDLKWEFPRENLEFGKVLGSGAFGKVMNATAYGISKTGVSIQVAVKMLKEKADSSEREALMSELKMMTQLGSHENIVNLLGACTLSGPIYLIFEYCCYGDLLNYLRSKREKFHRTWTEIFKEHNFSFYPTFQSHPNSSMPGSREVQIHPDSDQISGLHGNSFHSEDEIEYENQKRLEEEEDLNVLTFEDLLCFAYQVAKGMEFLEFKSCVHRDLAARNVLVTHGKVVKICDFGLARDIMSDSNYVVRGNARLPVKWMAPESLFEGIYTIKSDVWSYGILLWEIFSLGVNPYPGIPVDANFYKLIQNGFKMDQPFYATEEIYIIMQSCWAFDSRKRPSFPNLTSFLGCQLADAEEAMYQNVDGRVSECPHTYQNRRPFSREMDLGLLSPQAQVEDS
Sequence of Recombinant human Aurora B (amino acids 1-344) (Q96GD4 whole entry, the tested form may be a part): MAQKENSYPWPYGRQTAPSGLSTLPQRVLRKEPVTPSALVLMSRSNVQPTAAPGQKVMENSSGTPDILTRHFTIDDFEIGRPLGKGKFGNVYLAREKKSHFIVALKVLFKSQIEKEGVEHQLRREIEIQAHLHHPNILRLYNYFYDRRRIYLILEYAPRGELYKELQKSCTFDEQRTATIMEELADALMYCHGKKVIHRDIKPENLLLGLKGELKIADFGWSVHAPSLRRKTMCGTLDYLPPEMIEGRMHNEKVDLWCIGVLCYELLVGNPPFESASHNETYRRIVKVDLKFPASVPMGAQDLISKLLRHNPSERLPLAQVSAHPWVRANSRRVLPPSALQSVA

Turning to `C[C@@H](Oc1cc(-c2ccc3c(c2)ncn3C)cc2ncccc12)[C@H]1CNC(=O)C1` [94 of WO 2013/014060], the IC50 in assay [1] (read-out: IC50 in μM (SYK-Inhibition)) came out at 0.001 µM; in assay [2] (read-out: IC50 in μM (AURB-Inhibition)) it was 0.298 µM; on FLT3 (read-out: IC50 in μM (FLT3-Inhibition)), 0.267 µM.

For the compound `C[C@@H](Oc1nc(-c2cnn(C3CCCCO3)c2)cc2nn(C)cc12)[C@H]1CNC(=O)C1` (some centres unmarked) [Example 3], the figures for the IC50 (in assay [1] (setting [3]); in assay [2] (setting [4]); on FLT3 (setting [5])) were 0.0466 µM, over 50 µM and 17.4 µM, respectively.

As for `C[C@@H](Oc1nc(-c2cnn(C3CCCCC3)c2)cc2nn(C)cc12)[C@H]1CNC(=O)C1` [Example 7, (R)-4-((R)-1-(6-(1-cyclohexyl-1H-pyrazol-4-yl)-2-methyl-2H-pyrazolo[4,3-c]pyridin-4-yloxy)ethyl)pyrrolidin-2-one], the IC50 in assay [1] (setting [3]) stood at 0.0147 µM; in assay [2] (setting [4]), 37.3 µM; at FLT3 (setting [5]), 5.77 µM.

Take `C[C@@H](Oc1nc(-c2cnn(C3CCNCC3)c2)cc2nn(C)cc12)[C@H]1CNC(=O)C1` [Example 9, (4R)-4-[(1R)-1-[2-Methyl-6-[1-(4-piperidyl)pyrazol-4-yl]pyrazolo[4,3-c]pyridin-4-yl]oxyethyl]pyrrolidin-2-one]: the IC50 in assay [1] (setting [3]) is 0.0424 µM; in assay [2] (setting [4]), over 50 µM; at FLT3 (setting [5]), 3.67 µM.

For the compound `C[C@@H](Oc1nc(-c2cnn(C3CCC(F)(F)CC3)c2)cc2nn(C)cc12)[C@H]1CNC(=O)C1` [Example 10, (4R)-4-[(1R)-1-[6-[1-(4,4-Difluorocyclohexyl)pyrazol-4-yl]-2-methyl-pyrazolo[4,3-c]pyridin-4-yl]oxyethyl]pyrrolidin-2-one], the IC50 in assay [1] (setting [3]) was determined as 0.0218 µM; in assay [2] (setting [4]), 36 µM; on FLT3 (setting [5]), 8.03 µM.

As to `C[C@@H](Oc1nc(-c2cc3nn(C)cc3c(O[C@H](C)[C@H]3CNC(=O)C3)n2)cc2nn(C)cc12)[C@@H]1CNC(=O)C1` [Example 11, (4S)-4-[(1R)-1-[2-methyl-6-[2-methyl-4-[(1R)-1-[(3R)-5-oxopyrrolidin-3-yl]ethoxy]-pyrazolo[4,3-c]pyridin-6-yl]pyrazolo[4,3-c]pyridin-4-yl]oxyethyl]pyrrolidin-2-one], the half-inhibitory concentration (IC50) was 0.935 µM in assay [1] (setting [3]), over 50 µM in assay [2] (setting [4]) and 37.4 µM at FLT3 (setting [5]).

For the compound `C[C@@H](Oc1nc(-c2cnn([C@H]3CC[C@H](N4CCN(C)C(=O)C4)CC3)c2)cc2nn(C)cc12)[C@H]1CNC(=O)C1` [Example 12, 1-methyl-4-[4-[4-[2-methyl-4-[(1R)-1-[(3R)-5-oxopyrrolidin-3-yl]ethoxy]pyrazolo[4,3-c]pyridin-6-yl]pyrazol-1-yl]-cyclohexyl]piperazin-2-one], the results for the IC50 (in assay [1] (setting [3]); in assay [2] (setting [4]); at FLT3 (setting [5])) were 0.0123 µM, 34.1 µM and 8.33 µM, respectively.

As to `C[C@@H](Oc1nc(-c2cc3nn(C)cc3c(=O)[nH]2)cc2nn(C)cc12)[C@H]1CNC(=O)C1` [Example 13, 2-Methyl-6-[2-methyl-4-[(1R)-1-[(3R)-5-oxopyrrolidin-3-yl]ethoxy]pyrazolo[4,3-c]pyridin-6-yl]-5H-pyrazolo[4,3-c]pyridin-4-one], the IC50 in assay [1] (setting [3]) was 0.831 µM; in assay [2] (setting [4]), over 50 µM; on FLT3 (setting [5]), over 50 µM.

As for `C[C@@H](Oc1cc(-c2ccn(C)n2)cc2nn(C)cc12)[C@H]1CNC(=O)C1` [Example 14, (4R)-4-[(1R)-1-[2-methyl-6-(1-methylpyrazol-3-yl)indazol-4-yl]oxyethyl]-pyrrolidin-2-one], the figures for the IC50 (in assay [1] (setting [3]); on FLT3 (setting [5])) were 0.0421 µM and 40.8 µM, respectively.

Consider `C[C@@H](Oc1cc(-c2cnn(CCC(F)(F)F)c2)cc2nn(C)cc12)[C@H]1CNC(=O)C1` [Example 15, (4R)-4-[(1R)-1-[2-Methyl-6-[1-(3,3,3-trifluoropropyl)pyrazol-4-yl]indazol-4-yl]oxyethyl]pyrrolidin-2-one], for which the IC50 in assay [1] (setting [3]) was 0.0187 µM; in assay [2] (setting [4]), 33.4 µM; on FLT3 (setting [5]), 10.1 µM.

Regarding `C[C@@H](Oc1cc(-c2n[nH]c3ccc(C#N)cc23)cc2nn(C)cc12)[C@H]1CNC(=O)C1` [Example 16, 3-[2-methyl-4-[(1R)-1-[(3R)-5-oxopyrrolidin-3-yl]-ethoxy]indazol-6-yl]-1H-indazole-5-carbonitrile], the IC50 was 0.0065 µM in assay [1] (setting [3]), over 50 µM in assay [2] (setting [4]) and 10.6 µM on FLT3 (setting [5]).

Regarding `Cc1nccn1Cc1ccc(-c2cc3nn(C)cc3c(O[C@H](C)[C@H]3CNC(=O)C3)n2)cc1` [Example 17], the half-inhibitory concentration (IC50) in assay [1] (setting [3]) was 0.0316 µM; in assay [2] (setting [4]), over 50 µM; at FLT3 (setting [5]) it was 1.61 µM.

As for `C[C@@H](Oc1cc(-c2ccc(N3CCCS3(=O)=O)cc2)cc2nn(C)cc12)[C@H]1CNC(=O)C1` [Example 33], the IC50 in assay [1] (setting [3]) is 0.0245 µM; in assay [2] (setting [4]) it was over 50 µM; at FLT3 (setting [5]), 3.88 µM.

`C[C@@H](Oc1cc(-c2cnn(C(F)F)c2)cc2nn(C)cc12)[C@H]1CNC(=O)C1` [Example 40, (4R)-4-[(1R)-1-[6-[1-(difluoromethyl)pyrazol-4-yl]-2-methyl-indazol-4-yl]oxyethyl]pyrrolidin-2-one]: the results for the IC50 (in assay [1] (setting [3]); in assay [2] (setting [4]); at FLT3 (setting [5])) were 0.0343 µM, 31.4 µM and 8.95 µM, respectively.

As to `C[C@@H](Oc1cc(-c2cnc3ccc(C#N)cn23)cc2nn(C)cc12)[C@H]1CNC(=O)C1` [Example 43, 3-[2-methyl-4-[(1R)-1-[(3R)-5-oxopyrrolidin-3-yl]ethoxy]indazol-6-yl]imidazo[1,2-a]pyridine-6-carbonitrile], the IC50 in assay [1] (setting [3]) is 0.0649 µM; in assay [2] (setting [4]), over 50 µM; at FLT3 (setting [5]), 15.1 µM.

As to `C[C@@H](Oc1cc(-c2cnn(C3CCOCC3)c2)cc2nn(C)cc12)[C@H]1CNC(=O)C1` [Example 47, (4R)-4-[(1R)-1-[2-methyl-6-(1-tetrahydropyran-4-ylpyrazol-4-yl)indazol-4-yl]oxyethyl]pyrrolidin-2-one], the IC50 in assay [1] (setting [3]) worked out at 0.0067 µM; in assay [2] (setting [4]), 26 µM; at FLT3 (setting [5]) it was 4.77 µM.

For `C[C@@H](Oc1cc(-c2cc3cccc(Cl)c3[nH]2)cc2nn(C)cc12)[C@H]1CNC(=O)C1` [Example 48, (4R)-4-[(1R)-1-[6-(7-chloro-1H-indol-2-yl)-2-methyl-indazol-4-yl]oxyethyl]-pyrrolidin-2-one], the values for the half-maximal inhibitory concentration (IC50) (in assay [1] (setting [3]); in assay [2] (setting [4]); on FLT3 (setting [5])) were 0.0556 µM, over 50 µM and 16.9 µM, respectively.

For the compound `C[C@@H](Oc1nc(-c2ccc(C3CC3)nc2)cc2nn(C)cc12)[C@H]1CNC(=O)C1` [Example 50, (4R)-4-[(1R)-1-[6-(6-Cyclopropyl-3-pyridyl)-2-methyl-pyrazolo[4,3-c]pyridine-4-yl]oxyethyl]pyrrolidin-2-one], the figures for the IC50 (in assay [1] (setting [3]); in assay [2] (setting [4]); at FLT3 (setting [5])) were 0.0554 µM, 48 µM and 9.52 µM, respectively.

With `COc1ccc2[nH]cc(-c3cc4nn(C)cc4c(O[C@H](C)[C@H]4CNC(=O)C4)n3)c2c1` [Example 53, (4R)-4-[(1R)-1-[6-(5-methoxy-1H-indol-3-yl)-2-methyl-pyrazolo[4,3-c]pyridin-4-yl]oxyethyl]pyrrolidin-2-one], the values for the IC50 (in assay [2] (setting [4]); at FLT3 (setting [5])) were over 50 µM and 34.1 µM, respectively.

Regarding `Cc1ccc(-c2cc3nn(C)cc3c(O[C@H](C)[C@H]3CNC(=O)C3)n2)s1` [Example 54, (4R)-4-[(1R)-1-[2-methyl-6-(5-methyl-2-thienyl)pyrazolo-[4,3-c]pyridin-4-yl]oxyethyl]-pyrrolidin-2-one], the values for the IC50 (in assay [1] (setting [3]); in assay [2] (setting [4]); at FLT3 (setting [5])) were 0.0892 µM, over 50 µM and 16 µM, respectively.

As for `COc1cc(-c2cc3nn(C)cc3c(O[C@H](C)[C@H]3CNC(=O)C3)n2)ccc1OC1CCOCC1` [Example 73, (4R)-4-[(1R)-1-[6-(3-Methoxy-4-tetrahydropyran-4-yloxy-phenyl)-2-methyl-pyrazolo[4,3-c]pyridin-4-yl]oxyethyl]pyrrolidin-2-one], the values for the 50% inhibitory concentration (IC50) (in assay [2] (read-out: AURB-inhibition IC50-value); on FLT3 (setting [5])) were 49.1 µM and 4.17 µM, respectively.

`C[C@@H](Oc1nc(-c2cnn(C3CCN(C)CC3)c2)cc2nn(C)cc12)[C@H]1CNC(=O)C1` [Example 82, (4R)-4-[(1R)-1-[2-Methyl-6-[1-(1-methyl-4-piperidyl)pyrazol-4-yl]pyrazolo [4,3-c]pyridin-4-yl]oxyethyl]pyrrolidin-2-one]: the IC50 in assay [2] (setting [4]) is over 50 µM; on FLT3 (setting [5]), 7.78 µM.
